Reference: ChEMBL document CHEMBL4425106, “Uncoupling the Structure-Activity Relationships of β2 Adrenergic Receptor Ligands from Membrane Binding” (J Med Chem, 2016)

Biological target: Beta-2 adrenergic receptor (Homo sapiens) (UniProt P07550)
Sequence (P07550 whole entry, looked up): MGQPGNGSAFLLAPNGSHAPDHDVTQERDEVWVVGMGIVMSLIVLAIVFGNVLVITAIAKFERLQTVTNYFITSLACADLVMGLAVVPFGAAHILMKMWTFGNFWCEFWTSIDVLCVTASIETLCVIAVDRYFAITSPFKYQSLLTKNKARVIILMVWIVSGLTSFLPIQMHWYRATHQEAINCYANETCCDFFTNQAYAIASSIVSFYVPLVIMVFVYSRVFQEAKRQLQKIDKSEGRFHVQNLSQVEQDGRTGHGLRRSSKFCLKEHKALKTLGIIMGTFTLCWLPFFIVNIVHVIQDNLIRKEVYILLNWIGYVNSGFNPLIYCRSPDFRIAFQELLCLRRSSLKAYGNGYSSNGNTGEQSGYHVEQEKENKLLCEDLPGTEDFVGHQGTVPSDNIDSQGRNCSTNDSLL
Description: Binding affinity to inactive/G protein-uncoupled human beta2-AR by immobilized artificial membrane HPLC analysis

| SMILES | log K |
| --- | --- |
| CC(C)(C)NCC(O)COc1cccc2[nH]c(C#N)cc12 (racemic) | 2.9 |
| CC(C)(C)NCC(O)COc1cccc2c1CC(O)C(O)C2 (mixture of isomers) | 1.7 |
